Experimental data as given in ChEMBL document CHEMBL5584284, “Advancing Neurological Therapies: Integrating Novel Compounds and Clinical Trials for Enhanced Cognitive and Neuronal Health” (ACS Med Chem Lett, 2024).
Active and inactive are the calls of the source. No cut-off for these calls is given here.

Tests used:
Assay type in all cases: functional, cell-based
Cortical neurone [1] = assay: Neuroplasticity effect in Wistar rat cortical neurons assessed as increase in neurite number at <= 10 uM incubated for 72 […]
Cortical neurone [2] = assay: Neuroplasticity effect in Wistar rat cortical neurons assessed as increase in neurite length at <= 10 uM incubated for 72 […]
Cortical neurone [3] = assay: Neuroplasticity effect in Wistar rat cortical neurons assessed as increase in neurite branching at <= 10 uM incubated for 72 […]

SMILES	Activity (Cortical neurone [1])	Activity (Cortical neurone [2])	Activity (Cortical neurone [3])
CN1CCC2c3ccc(Oc4ccccc4)cc3N(C)C2CC1 (stereo not drawn)	inactive	Active	inactive
CN1CCC2Nc3cc(Oc4ccccc4)ccc3C2CC1 (stereo not drawn)	Active	Active	Active
CN1CCC2Nc3cc(OCc4ccccc4)ccc3C2CC1 (stereo not drawn)	Active	Active	inactive
CN1CCC2Nc3cc(OCc4ccc(F)cc4)ccc3C2CC1 (stereo not drawn)	Active	Active	Active
Fc1ccc(Oc2ccc3c(c2)NC2CCNCCC32)cc1 (stereo not drawn)	Active	Active	Active
c1ccc(COc2ccc3c(c2)NC2CCNCCC32)cc1 (stereo not drawn)	Active	Active	Active
